Reference: PubChem BioAssay (NCI)
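Five concentrations, 48 hours, 96-well plates. At the GI50, growth is halved. TGI is the concentration that stops growth completely.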

Experiments:
Assay in all cases: growth of human tumour cells (NCI), 48 h
786-0 renal = system: 786-0 renal
A498 renal = system: A498 renal
A549 NSCLC = system: A549 NSCLC
ACHN renal = system: ACHN renal
BT-549 breast = system: BT-549 breast
CAKI-1 renal = system: CAKI-1 renal
CCRF-CEM leukemia = system: CCRF-CEM leukemia
COLO 205 colon = system: COLO 205 colon
DU-145 prostate = system: DU-145 prostate
EKVX NSCLC = system: EKVX NSCLC
HCC-2998 colon = system: HCC-2998 colon
HCT-116 colon = system: HCT-116 colon
HCT-15 colon = system: HCT-15 colon
HL-60(TB) leukemia = system: HL-60(TB) leukemia
HOP-62 NSCLC = system: HOP-62 NSCLC
HOP-92 NSCLC = system: HOP-92 NSCLC
HS 578T breast = system: HS 578T breast
HT29 colon = system: HT29 colon
IGROV1 ovarian = system: IGROV1 ovarian
K-562 leukemia = system: K-562 leukemia
KM12 colon = system: KM12 colon
LOX IMVI melanoma = system: LOX IMVI melanoma
M14 melanoma = system: M14 melanoma
MALME-3M melanoma = system: MALME-3M melanoma
MCF7 breast = system: MCF7 breast
MDA-MB-435 = system: MDA-MB-435
MDA-MB-468 breast = system: MDA-MB-468 breast
MOLT-4 leukemia = system: MOLT-4 leukemia
NCI-H226 lung = system: NCI-H226 lung
NCI-H23 lung = system: NCI-H23 lung
NCI-H460 lung = system: NCI-H460 lung
NCI-H522 lung = system: NCI-H522 lung
NCI/ADR-RES ovarian = system: NCI/ADR-RES ovarian
OVCAR-3 ovarian = system: OVCAR-3 ovarian
OVCAR-4 ovarian = system: OVCAR-4 ovarian
OVCAR-5 ovarian = system: OVCAR-5 ovarian
OVCAR-8 ovarian = system: OVCAR-8 ovarian
PC-3 prostate = system: PC-3 prostate
RPMI-8226 leukemia = system: RPMI-8226 leukemia
RXF 393 renal = system: RXF 393 renal
SF-268 CNS = system: SF-268 CNS
SF-295 CNS = system: SF-295 CNS
SF-539 CNS = system: SF-539 CNS
SK-MEL-28 melanoma = system: SK-MEL-28 melanoma
SK-MEL-5 melanoma = system: SK-MEL-5 melanoma
SK-OV-3 ovarian = system: SK-OV-3 ovarian
SN12C renal = system: SN12C renal
SNB-19 CNS = system: SNB-19 CNS
SR leukemia = system: SR leukemia
SW-620 colon = system: SW-620 colon
T-47D breast = system: T-47D breast
TK-10 renal = system: TK-10 renal
U251 CNS = system: U251 CNS
UACC-257 melanoma = system: UACC-257 melanoma
UACC-62 melanoma = system: UACC-62 melanoma

SMILES: O=C(CSc1nc2sc3c(c2c(=O)n1-c1ccc(Cl)cc1)CCCC3)N/N=C/C=C/c1ccccc1
- GI50 (786-0 renal): 5.51 µM
- TGI (786-0 renal): 20.7 µM
- GI50 (A498 renal): 7.71 µM
- TGI (A498 renal): 25.4 µM
- GI50 (A549 NSCLC): 3.58 µM
- TGI (A549 NSCLC): 15.5 µM
- GI50 (ACHN renal): 4.22 µM
- TGI (ACHN renal): 29.2 µM
- GI50 (BT-549 breast): 3.15 µM
- TGI (BT-549 breast): 7.65 µM
- GI50 (CAKI-1 renal): 43.1 µM
- TGI (CAKI-1 renal): > 100 µM
- GI50 (CCRF-CEM leukemia): 11.5 µM
- TGI (CCRF-CEM leukemia): 69.9 µM
- GI50 (COLO 205 colon): 1.71 µM
- TGI (COLO 205 colon): 3.4 µM
- GI50 (DU-145 prostate): 5.3 µM
- TGI (DU-145 prostate): > 100 µM
- GI50 (EKVX NSCLC): 8.81 µM
- TGI (EKVX NSCLC): > 100 µM
- GI50 (HCC-2998 colon): 2.75 µM
- TGI (HCC-2998 colon): 7.05 µM
- GI50 (HCT-116 colon): 3.03 µM
- TGI (HCT-116 colon): 13 µM
- GI50 (HCT-15 colon): 2.96 µM
- TGI (HCT-15 colon): 10.4 µM
- GI50 (HL-60(TB) leukemia): > 100 µM
- TGI (HL-60(TB) leukemia): > 100 µM
- GI50 (HOP-62 NSCLC): 3.31 µM
- TGI (HOP-62 NSCLC): 13 µM
- GI50 (HOP-92 NSCLC): 3.91 µM
- TGI (HOP-92 NSCLC): 25.9 µM
- GI50 (HS 578T breast): 4.64 µM
- TGI (HS 578T breast): 56.5 µM
- GI50 (HT29 colon): 2.61 µM
- TGI (HT29 colon): 6.48 µM
- GI50 (IGROV1 ovarian): 14.1 µM
- TGI (IGROV1 ovarian): 35.7 µM
- GI50 (K-562 leukemia): 4.68 µM
- TGI (K-562 leukemia): > 100 µM
- GI50 (KM12 colon): 16.7 µM
- TGI (KM12 colon): 63.6 µM
- GI50 (LOX IMVI melanoma): 9.02 µM
- TGI (LOX IMVI melanoma): 22.2 µM
- GI50 (M14 melanoma): 3.44 µM
- TGI (M14 melanoma): 15 µM
- GI50 (MALME-3M melanoma): 1.99 µM
- TGI (MALME-3M melanoma): 4.85 µM
- GI50 (MCF7 breast): 3.35 µM
- TGI (MCF7 breast): 18.4 µM
- GI50 (MDA-MB-435): 5.28 µM
- TGI (MDA-MB-435): 22.5 µM
- GI50 (MDA-MB-468 breast): 1.85 µM
- TGI (MDA-MB-468 breast): 4.11 µM
- GI50 (MOLT-4 leukemia): 3.57 µM
- TGI (MOLT-4 leukemia): 12.9 µM
- GI50 (NCI-H226 lung): 5.19 µM
- TGI (NCI-H226 lung): 23 µM
- GI50 (NCI-H23 lung): 2.12 µM
- TGI (NCI-H23 lung): 5.78 µM
- GI50 (NCI-H460 lung): 3.14 µM
- TGI (NCI-H460 lung): 10.6 µM
- GI50 (NCI-H522 lung): 3.17 µM
- TGI (NCI-H522 lung): 12.6 µM
- GI50 (NCI/ADR-RES ovarian): 3.58 µM
- TGI (NCI/ADR-RES ovarian): 16 µM
- GI50 (OVCAR-3 ovarian): 100 µM
- TGI (OVCAR-3 ovarian): > 100 µM
- GI50 (OVCAR-4 ovarian): 3.42 µM
- TGI (OVCAR-4 ovarian): 15.9 µM
- GI50 (OVCAR-5 ovarian): 4.87 µM
- TGI (OVCAR-5 ovarian): 27.7 µM
- GI50 (OVCAR-8 ovarian): 3.17 µM
- TGI (OVCAR-8 ovarian): 11.7 µM
- GI50 (PC-3 prostate): 3.04 µM
- TGI (PC-3 prostate): 17.9 µM
- GI50 (RPMI-8226 leukemia): 4.51 µM
- TGI (RPMI-8226 leukemia): 34 µM
- GI50 (RXF 393 renal): 1.93 µM
- TGI (RXF 393 renal): 4.75 µM
- GI50 (SF-268 CNS): 24.9 µM
- TGI (SF-268 CNS): > 100 µM
- GI50 (SF-295 CNS): 4.92 µM
- TGI (SF-295 CNS): 22.4 µM
- GI50 (SF-539 CNS): 24.6 µM
- TGI (SF-539 CNS): > 100 µM
- GI50 (SK-MEL-28 melanoma): 4.23 µM
- TGI (SK-MEL-28 melanoma): 16.5 µM
- GI50 (SK-MEL-5 melanoma): 3.12 µM
- TGI (SK-MEL-5 melanoma): 10.8 µM
- GI50 (SK-OV-3 ovarian): 14.2 µM
- TGI (SK-OV-3 ovarian): 38.4 µM
- GI50 (SN12C renal): 18 µM
- TGI (SN12C renal): > 100 µM
- GI50 (SNB-19 CNS): 18.2 µM
- TGI (SNB-19 CNS): > 100 µM
- GI50 (SR leukemia): 26.5 µM
- TGI (SR leukemia): > 100 µM
- GI50 (SW-620 colon): 2.7 µM
- TGI (SW-620 colon): 8.75 µM
- GI50 (T-47D breast): 2.39 µM
- TGI (T-47D breast): 6.92 µM
- GI50 (TK-10 renal): 2.8 µM
- TGI (TK-10 renal): 9.84 µM
- GI50 (U251 CNS): 3.3 µM
- TGI (U251 CNS): 11.7 µM
- GI50 (UACC-257 melanoma): 11.8 µM
- TGI (UACC-257 melanoma): 87.8 µM
- GI50 (UACC-62 melanoma): 2.84 µM
- TGI (UACC-62 melanoma): 10.9 µM
